Results as given in patent US8455552B2, “Composition comprising S-allylmercapto-N-acetylcysteine (ASSNAC) for up-regulation of cellular glutathione level” (RAMOT et Tel Aviv University Ltd., priority 2007, dated 2013).
Like-named read-outs stand apart in the source and are kept apart here.

Experiments:
[1] = system: Bovine aortic endothelial cells (EC); settings: from L. Horev-Azaria, Ph.D. Thesis, cited from earlier work
VCAM-1 = assay: Gene expression by real-time PCR in EC: VCAM-1; format: cell-based, bovine; settings: 3 hours; ASSNAC 0.2 mM, LPS 1 μg/ml
Source text: (§1) Total RNA was collected by EZ-RNA 2 kit, treated with DNAse, converted to cDNA and assayed in triplicate by real-time quantitative PCR using a ABI Prism 7700 Sequence Detector System (Applied Biosystem, Foster City, Calif., USA), with Absolute SYBR Green ROX mix and analyzed (SDS 2.1 software). Primers: human glutamate-cysteine-ligase modifier subunit (GCLM)—Forward: 5′[…] GTAAC3′ • and Reverse: 5′[…]3′; • Human heme oxygenase-1 (HO-1)—Forward: 5′[…]3′ • and Reverse: 5′[…]3′; • bovine TGF β2—Forward: […] • and Reverse: […]; • bovine TNF-alfa—Forward: […] • and Reverse: […]; • bovine ICAM-1—Forward: […] • and Reverse: […]; • bovine VCAM-1 Forward: […] • and Reverse: […]. • Results were normalized based on the quantity of human β-actin. Primers—Forward: 5′CCTGGCACCCAGCACAAT3′ and Reverse: 5′[…]3′.
(§2) The effect of ASSNAC on gene expression was further shown to be specific. Endothelial cells (EC) were treated by ASSNAC (0.2 mM) and LPS (1 μg/ml) for 3 hours following by mRNA extraction. The expression of the inflammatory genes TGF β2, ICAM-1, VCAM-1 and TNFα was then studied by Real-Time PCR. […] Only TGF β2 was induced by ASSNAC and to a lesser extent by LPS. TNFα expression was not induced by either ASSNAC or LPS (Table 2B).

[2] = system: human neuroblastomas SH-SY5Y cell line; assay: Protection of SH-SY5Y cultures against tBuOOH cytotoxicity (neutral red); settings: then tBuOOH 1 mM 3 hours
TGF β2 = assay: Gene expression by real-time PCR in EC: TGF β2; format: cell-based, bovine; settings: 3 hours; ASSNAC 0.2 mM, LPS 1 μg/ml
Source text: as §1, §2

[3] = system: glutamate-cysteine-ligase modifier subunit (GCLM); assay: Gene expression by real-time PCR in EC: GCLM; format: cell-based, bovine; settings: 3 hours; NAC 2 mM, ASSNAC 0.2 mM
Source text: as §1
(§3) Increased expression of the phase II detoxifying enzymes by cells is indicative of increased protection against oxidative stress. In order to determine the effect of NAC and ASSNAC on gene expression in EC, cells were treated with NAC (2 mM) and ASSNAC (0.2 mM) for 3 hours following by extraction of mRNA. The expression of GCLM and HO-1 was then studied by Real-Time PCR. […] Without being bound by any theory or mechanism of action, the GCLM activity and the cystein level are considered to be the rate limiting step of the glutathione synthesis. […]

heme oxygenase-1 (HO-1) = assay: Gene expression by real-time PCR in EC: HO-1; format: cell-based, bovine; settings: 3 hours; NAC 2 mM, ASSNAC 0.2 mM
Source text: as §1, §3

Endothelial cells (EC) = assay: Cytotoxicity test, BuOOH-stimulated cytotoxicity in endothelial cells (Neutral Red); format: cell-based, bovine; settings: pre-incubation 18 hours; ASSNAC 0.2 mM vs NAC 1 mM and CSSA 0.2 mM; BuOOH 0.1 mM 3 hours
Protocol: (§4) Bovine aortic endothelial cells (EC) were prepared from bovine aorta, cultured in DMEM supplemented with 5% fetal calf serum, 5% calf serum, 2 mM L-glutamine, 100 U/ml penicillin, 100 μg/ml streptomycin, 12.5 U/ml nystatin and FGF-2 (3 ng/ml; added every 48 hours). Cultures were incubated at 37° C. in a humidified 10% CO2 atmosphere and passages 12-18 were used for experiments.
Endothelial cells (EC; 10^4 cells/well) were grown till confluency in fibronectin-coated (5 μg/ml) 96 wells plates. Confluent EC were pre-incubated with ASSNAC 0.2 mM, CSSA 0.2 mM and NAC 1 mM for 18 hours in growth medium at 37° C. Subsequently, cells were washed with serum free DMEM medium and treated with […] ([…]) 0.1 mM for 3 hours. The number of viable cells was determined by Neutral Red (NR) staining method. After removing the culture medium, cells were incubated in NR working solution (1:100 in DCCM) for 2 hours at 37° C. […] Optical density of the dye was determined at 550 nm in an ELISA reader. The cell cytotoxicity was calculated by the following formula: Cytotoxicity (%)=[1−NR uptake in treated wells/NR uptake in control wells]×100 The control (untreated wells) were determined as 0% cytotoxity, the average of triplicates of each treatment is shown.

[4] = system: Bovine aortic endothelial cells (EC); assay: Determination of total glutathione in endothelial cell cultures; format: cell-based; settings: for glutathione cellular level as a function of time: FIG. 2A; for EC50: Bos taurus, Endothelial cell, concentration giving half-maximal increase of glutathione level, read-out: HALF-maximal (effect of increased glutathione level); for Maximal effect (increased glutathione level): concentration giving maximal increase of glutathione level
Protocol: as §4
(§5) EC cultures were incubated in the presence or absence of PDTC, NAC, ASSNAC and their combinations. At the end of the incubation, cells were washed, collected into 10 mM HCl and further lyzed by samples freezing (in liquid nitrogen) and thawing, 3 times. Cell protein was precipitated by addition of SSA (10%) followed by centrifugation at 10,000 g and supernatant was collected for glutathione determination. Total glutathione (GSH+GSSG) was determined by the Anderson recycling method. Briefly, a reaction mixture containing phosphate buffer, EDTA, DTNB, NADPH and glutathione reductase was added to 96-wells plates already containing 20 μl of the experimental samples or a GSSG standard. The plates were shaken and OD at 405 nm was monitored at 10 sec intervals for 130 sec in a micro-plate reader. To determine the GSSG level in the total cellular glutathione, 2-vinylpyridine was used to conjugate GSH and remove it from the mixture followed by total glutathione determination as described above. For normalization, the protein pellet of each sample was lyzed in 0.2 N NaOH and quantified by the Lowry method.

TNFα = assay: Gene expression by real-time PCR in EC: TNFα; format: cell-based, bovine; settings: 3 hours; ASSNAC 0.2 mM, LPS 1 μg/ml
Source text: as §1, §2

ICAM-1 = assay: Gene expression by real-time PCR in EC: ICAM-1; format: cell-based, bovine; settings: 3 hours; ASSNAC 0.2 mM, LPS 1 μg/ml
Source text: as §1, §2

[5] = system: human neuroblastomas SH-SY5Y cell line; assay: Cellular glutathione level in SH-SY5Y cultures; format: cell-based
Protocol: In order to establish the potential effect of ASSNAC on glutathione up-regulation in the nerve system as a mean to protect against neurodegenerative diseases the effect of ASSNAC on the human neuroblastomas SH-SY5Y cell line was studied. The cells were cultured in DMEM supplemented with 10% fetal calf serum, 2 mM L-glutamine, 100 U/ml penicillin, 100 μg/ml streptomycin, 12.5 U/ml nystatin. Cultures were incubated at 37° C. in a humidified 10% CO2 atmosphere.
as §5
The effect was observable at a concentration of 0.05 mM with a 2.4-fold maximal increase in glutathione at a concentration of 0.2 mM. The results are presented as mean±SD (n=2). A significant increase in glutathione was determined by ANOVA analysis (p<0.005; FIG. 8A).
Confluent SH-SY5Y cultures were exposed to ASSNAC (0.2 mM) for various time periods. The cultures were then washed and the cellular level of total glutathione was determined. […] The results are presented as mean±SD (n=2). A significant increase in glutathione was determined by ANOVA analysis (p<0.005; FIG. 8B).

[6] = 24 hours, increasing concentrations

| Compound | EC50 [4] [µM] | VCAM-1 gene expression (VCAM-1) | TGF β2 gene expression (TGF β2) | GCLM gene expression [3] | HO-1 gene expression (heme oxygenase-1 (HO-1)) | Maximal Fold Increase (glutathione level) [4] | glutathione cellular level as a function of time ([4]; 0.2 mM) | concentration of maximal effect on glutathione level [4, 6] [mM] | Maximal effect (increased glutathione level) [4] [µM] | TNFα gene expression (TNFα) | ICAM-1 gene expression (ICAM-1) | other results |
| --- | --- | --- | --- | --- | --- | --- | --- | --- | --- | --- | --- | --- |
| C=CCS[S+]([O-])CC=C (centres unmarked) [Allicin] | – | – | – | – | – | – | – | – | – | – | – | Maximal Fold Increase (glutathione level) [1]: 8; Maximal effect (increased glutathione level) [1]: 20 µM; EC50 ([1]; read-out: HALF-maximal (effect of increased glutathione level)): 7 µM |
| S=C(S)N1CCCC1 [PDTC, Pyrrolidine dithiocarbamate] | – | – | – | – | – | – | – | – | – | – | – | reduced glutathione (GSH) versus PDTC concentration ([4]; 24 hours, increasing concentrations, FIG. 6A): concentration dependent increase; concentration of GSH versus time ([4]; PDTC 0.1 mM, increasing time intervals, FIG. 6B): linear increase |
| lipopolysacharide [LPS] | – | 104.7 | 5.7 | – | – | – | – | – | – | 0.71 | 19.52 | – |

More lines, main results first:

| EC50 [4] [µM] | Compound | VCAM-1 gene expression (VCAM-1) | TGF β2 gene expression (TGF β2) | GCLM gene expression [3] | HO-1 gene expression (heme oxygenase-1 (HO-1)) | Maximal Fold Increase (glutathione level) [4] | glutathione cellular level as a function of time ([4]; 0.2 mM) | concentration of maximal effect on glutathione level [4, 6] [mM] | Maximal effect (increased glutathione level) [4] [µM] | TNFα gene expression (TNFα) | ICAM-1 gene expression (ICAM-1) | other results |
| --- | --- | --- | --- | --- | --- | --- | --- | --- | --- | --- | --- | --- |
| 60 | C=CCSSC[C@H](NC(C)=O)C(=O)O [ASSNAC, S-allylmercapto-N-acetylcysteine] | 0.94 | 2.14 | 2.3 ± 1.0 (n = 4) | 8.2 ± 4.2 (n = 4) | 4 | significant increase in glutathione cellular level | 0.2 | 200 | 0.77 | 1.03 | cytotoxicity after ASSNAC pretreatment ([2]; ASSNAC 0.2 mM 24 hours): 25%; concentration at which decrease in cytotoxicity starts ([2]; pretreatment 24 hours): 25 µM; protection of cells from BuOOH oxidation stress (Endothelial cells (EC)): better protection; glutathione level after 24 hours, ASSNAC in comparison to CSSA ([4]; 0.2 mM, 24 hours): higher glutathione level; concentration at which up-regulation of glutathione level starts [4, 6]: 0.05 mM; signs of cytotoxic effect ([4]; up to a concentration of 2.0 mM, 24 hours): without any signs of cytotoxic effect; concentration at which increase in glutathione is observable ([5]; 24 hours): 0.05 mM; concentration of maximal increase in glutathione ([5]; 24 hours): 0.2 mM; maximal increase in glutathione ([5]; 24 hours, at 0.2 mM): 2.4 fold; time of maximal increase in glutathione ([5]; ASSNAC 0.2 mM): 24 h |
| 320 | CC(=O)N[C@@H](CS)C(=O)O [NAC, N-acetylcysteine] | – | – | 1.0 ± 0.2 (n = 3) | 0.9 ± 0.1 (n = 3) | 2.5 | – | 2 | 500 | – | – | time to maximal increase in glutathione level ([4]; NAC 2 mM): 6 h |
| 70 | C=CCSSC[C@H](N)C(=O)O [CSSA, S-allylmercaptocysteine] | – | – | – | – | 2 | significant increase in glutathione cellular level | – | 200 | – | – | speed of glutathione response ([4]; 0.2 mM, CSSA compared with ASSNAC): faster response; distribution of glutathione up-regulation between GSH and GSSG ([4]; 0.3 mM CSSA, FIG. 4): increase in GSH but not in GSSG level; GSSG level as share of the total cellular glutathione level ([4]; 0.3 mM CSSA, different time intervals): lower than 2% |
